# From PubChem BioAssay (NCI)
#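 A five-concentration, 48-hour dose response in 96-well plates underlies each endpoint, interpolated linearly between surrounding concentrations. TGI marks complete inhibition of growth.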
# Experiments:
# Test in all cases: NCI-60 cell line screen, 48 h
# [1] = test system: TK-10 renal
# [2] = test system: SF-268 CNS
# [3] = test system: K-562 leukemia
# [4] = test system: COLO 205 colon
# [5] = test system: OVCAR-8 ovarian
# [6] = test system: M19-MEL melanoma
# [7] = test system: ACHN renal
# [8] = test system: MOLT-4 leukemia
# [9] = test system: HL-60(TB) leukemia
# [10] = test system: LXFL 529 NSCLC
# [11] = test system: NCI-H23 lung
# [12] = test system: UACC-257 melanoma
# [13] = test system: SK-MEL-28 melanoma
# [14] = test system: EKVX NSCLC
# [15] = test system: SK-MEL-5 melanoma
# [16] = test system: HOP-92 NSCLC
# [17] = test system: UO-31 renal
# [18] = test system: DLD-1 colon
# [19] = test system: CAKI-1 renal
# [20] = test system: OVCAR-4 ovarian
SMILES,TGI [1],TGI [2],TGI [3],TGI [4],TGI [5],TGI [6],TGI [7],TGI [8],TGI [9],TGI [10],TGI [11],TGI [12],TGI [13],TGI [14],TGI [15],TGI [16],TGI [17],TGI [18],TGI [19],TGI [20]
COC(=O)C(Cc1ccc2c(c1)OCO2)(NC(=O)c1ccccc1)P(=O)(OC)OC (stereo not given),> 100 µM,> 100 µM,> 100 µM,> 100 µM,> 100 µM,> 100 µM,> 100 µM,> 100 µM,> 100 µM,> 100 µM,> 100 µM,> 100 µM,> 100 µM,> 100 µM,> 100 µM,> 100 µM,> 100 µM,> 100 µM,> 100 µM,> 100 µM
Nc1ccc(Oc2ccc(C3(c4ccc(Oc5ccc(N)c(O)c5)cc4)C4CC5CC(C4)CC3C5)cc2)cc1O,4.54 µM,–,5.56 µM,1.72 µM,–,–,3.18 µM,4.08 µM,5.3 µM,–,–,5.91 µM,–,6.16 µM,3.02 µM,8.94 µM,3.82 µM,–,5.03 µM,24.9 µM
CC(C)OP(=O)(OC(C)C)C(=Nc1ccc(N=C(NNc2ccc([N+](=O)[O-])cc2)P(=O)(OC(C)C)OC(C)C)cc1)NNc1ccc([N+](=O)[O-])cc1,> 100 µM,> 100 µM,> 100 µM,> 100 µM,> 100 µM,> 100 µM,> 100 µM,> 100 µM,> 100 µM,> 100 µM,> 100 µM,> 100 µM,> 100 µM,> 100 µM,> 100 µM,> 100 µM,> 100 µM,> 100 µM,> 100 µM,> 100 µM
CCOC(=O)/C(C#N)=c1/s/c(=C(\O)N/N=C/c2ccc(OC)cc2)c(=N)n1-c1ccccc1,> 100 µM,> 100 µM,> 100 µM,> 100 µM,> 100 µM,> 100 µM,> 100 µM,> 100 µM,> 100 µM,> 100 µM,> 100 µM,> 100 µM,> 100 µM,–,> 100 µM,> 100 µM,> 100 µM,> 100 µM,–,–
